pEC50: −log10 of the molar value.
Assays:
HUVEC = test: Calcium imaging, intracellular [Ca2+]i increase in HUVEC; type: cell-based, human; conditions: for changes in cellular [Ca2+]i: 2 μmol/L
Experimental: HUVECs were plated onto 24-well plates and grown to 70% confluence. To monitor cytosolic Ca^2+ signals, cells were loaded with fluo-3 AM (4 μmol/L; Molecular Probes) and incubated for 40 min at 37° C. in complete medium that contained […] pluronic acid. After washing twice with HEPES buffer that contained (in mmol/L) 1.25 CaCl2, 5.5 D-glucose, 10 HEPES, 5 KCl, 0.5 MgCl2, and 140 NaCl (brought to pH 7.4 with NaOH); the plates were incubated at 37° C. for 15 additional minutes prior to fluorescence imaging. Fluorescence images were acquired every 1 s over the course of 5 min in cells treated with 4α-phorbol-12, 13-didecanoate (4α-PDD; a specific TRPV4 agonist; 10 μmol/L), 5,6-diHETE ((±)5,6-dihydroxy-8Z,11Z,14Z,17Z-eicosatetraenoic acid) 1, 5 lactone (0.01-5 μmol/L) and 5,6-diHETE (hydrolytic isomer of 5,6-EEQ; 2 and 5 μmol/L). The calculated ratio between maximal intensity (F1) and basal intensity (F0) was determine for each experiment and presented as Average±SD.
To investigate the effect of 5,6-diHETE ((±)5,6-dihydroxy-8Z,11Z,14Z,17Z-eicosatetraenoic acid) lactone on cytosolic [Ca^2+]i (FIG. 1), HUVECs were exposed to graded doses of 5,6-diHETE lactone (0.01-5 μmol/L) in ethanol/HEPES buffer, and the intracellular changes in [Ca^2+] were determined by the mean of fluoresces intensity. […] No significant differences in cytosolic [Ca^2+]i levels were detected beyond 0.5 μM lactone. Above this concentration the cytosolic [Ca^2+]i levels reach saturation.
These rapid pathways result in the reduction of epoxide concentrations, and thus, in a decrease in their activity. We therefore tested the ability of the hydrolyzed form compared to the unhydrolyzed form to increase intracellular calcium (FIG. 2).

rat mesenteric arteries = test: Relaxation of rat mesenteric arteries from NT and 5/6Nx rats (wire myograph)
[1] = tested on: mouse mesenteric resistance arteries; test: Vascular reactivity in mouse mesenteric resistance arteries (wire myograph); conditions: 10^−5 mol/L, pre-constricted with U-46619 0.1 μmol/L, n=11
Experimental: On the day preceding the experiment, adult male mice (age 3-6 months) were decapitated and mesenteric tissue was dissected and placed on an agar plate with ice-cold HEPES-physiological saline solution (PSS) containing: 123 mM NaCl, 4.7 mM KCl, 2.5 mM CaCl2*2H2O, 1.2 mM MgSO4*7H2O, 20 mM NaHCO3, 1.2 mM KH2PO4, 26 μM EDTA, 11 mM glucose and 2.38 mg/ml HEPES Fat and connective tissue were carefully removed, arterioles (150-200 μm diameter) were cut into 3 mm segments and stored overnight at 4° C. The vessels were then mounted carefully on two tungsten wires (0.025 mm diameter) with care not to damage the endothelium, and mounted on a four-chamber wire myograph (DMT, Denmark, Model 620 M). Arteries were then equilibrated at 37° C. for 30 min in the myograph chamber filled with PSS and constantly bubbled with gas containing 21% O2, 74% N2, and 5% CO2 and set at 1 mN resting tension obtained in the LabChart Pro software (AD instruments, Oxfordshire, UK). […] After contraction reached steady state, cumulative concentrations of 5,6-diHETE lactone were added (1 μM to 10 μM) in DMSO (up to 0.16%) and the % relaxation responses were determined relative to the relaxation response to 100 μM papaverine.
To evaluate the vasodilation mediated by 5,6-diHETE lactone, mesenteric arteries from C57BL were extracted and monitored for their dilation in a wire myograph chamber under physiological conditions. […]

[2] = target: T1, KCa2.3 (SK3) calcium-activated potassium channel (human KCNN3 gene) expressed in HEK293 cells (Homo sapiens, UniProt Q9UGI6); test: Thallium flux assay, agonist effect on SK3 channel; type: cell-based
T1 construct: expressed in transfected cells
Experimental: (§1) Potassium channels genes were expressed in HEK293 or CHO cells (see Table 1). SspI or PvuI enzymes were used to linearize pcDNA3.1 plasmid (Thermo Fisher). The plasmid was stably transfected by Lonza Nucleofector. The transfection efficiency was >80% as validated by expression (western blot) and activation (patch clamp and membrane potential detection) of the channels.
(§2) Functional activity of voltage-gated potassium channels was conducted using a potassium dye (Thallium flux assay, Molecular Devices) using a Fluorescence Imaging Plate Reader (FLIPRTETRA™) instrument, according to the manufacturer's instructions. Cells were plated in 384-well black wall, flat clear bottom microtiter plates (BD Biocoat Poly-D Lysine Multiwell Cell Culture Plate) at 15,000 to 30,000 cells per well. Cells were incubated at 37° C. overnight or until cells reach sufficient density in the wells (near confluent monolayer) to use in fluorescence assays. A typical sequence is to record a baseline during the pre-incubation period (first addition of test article before stimulation), followed by activation in the stimulus buffer. For each addition, the first 60 seconds of data are acquired at the maximum rate (1 sample/second) and for the remaining 9-19 minutes (depending on the recording time of each addition); data are sampled every 5 seconds.
(§3) Accordingly, the objective of this study was to evaluate the agonist effects in vitro of the 5,6-diHETE lactone on two cloned human channels stably expressed in HEK-293 or CHO cells. The assay was performed with a thallium flux assay (FLIPR® Potassium Assay, Molecular Devices) according to the manufacturer's instructions. Briefly, cells were plated in 384-well black wall, flat clear bottom microtiter plates (BD Biocoat Poly-D-Lysine Multiwell Cell Culture Plate) at 15,000 to 30,000 cells per well. Cells were incubated at 37° C. overnight or until cells reach sufficient density in the wells (near confluent monolayer) to use in fluorescence assays. Dye-loading: Growth medium was removed and replaced with dye-loading buffer for 60 minutes at room temperature (protected from light). Agonist Effect: 5 repetitions of (5 μL) test, and vehicle or control solutions (assay buffer=0.3% DMSO) in K^+-free buffer with 5 mM Tl^+ was added to each well for ˜5 minutes. The test was 5,6-diHETE lactone (at eight concentrations: 0.05, 0.15, 0.3, 0.65, 1.25, 2.5, 5, and 10 μM, n=4). The agonist effects of the test article on the potassium channels was evaluated during this period by using a Fluorescence Imaging Plate Reader (FLIPRTETRA™) instrument.
(§4) To calculate the effect, the signal elicited in the presence of a known agonist, (1 μM A-23187 for SK3 and 10 μM NS309 for IK) with 5 mM thallium was set to 100% activation and the signal in the presence of the vehicle control (assay buffer+0.3% DMSO) was set to 0% activation. EC50 was calculated using GraphPad prism 5 software using nonlinear regression fit formula assuming a simple binding model.

[3] = tested on: Sprague-Dawley 5/6Nx rats; test: Direct blood pressure measurement in 5/6Nx rats after acute injection; type: in vivo, rat
Experimental: Direct blood pressure measurements—For direct blood pressure (BP) evaluation, Sprague-Dawley 5/6Nx rats were deeply anesthetized by an injection of 87 mg/kg ketamine and 13 mg/kg xylazine (intramuscular) mixture. Next, the rats were instrumented with a venous line and an arterial line. Specifically, using 26G i.v. cannula (BD Neoflon, Helsinborg, Sweden) we punctured one of the tail veins, and installed the cannula. Next, 1 ml of saline heparin (500 IU/ml) mixture was administered to avoid blood clotting. Concomitantly, we installed the arterial line, after a neck incision we bluntly exposed the right carotid and ligated it distally. Then the artery was clamped proximally and incised between the ligation and the clamp. A 100 PE tube was advanced into the artery and tightened in it by second ligature aimed to avoid blood leakage, and then we removed the arterial clamp. The external tube was attached to a Luer stopcock valve, through which saline could be injected, blood withdrawn and to be connected to a pressure transducer.
Upon connecting and stabilization, signals were continuously sampled at a sampling rate of 200 samples/sec by the MPVS-300 system, recorded.
Basal BP was recorded for 10 min, after which time 0.5 ml 5,6-diHETE lactone (0.3 mg/kg and 3 mg/kg) dissolved in saline+DMSO (9:1) were injected through the venous line, and BP was recorded for additional 10 min after injection. For control, two distinct, known BP lowering agents were used consecutively, labetalol (10 mg/kg) a known a and p adrenergic inhibitor, and amlodipine (1.5 mg/kg) a calcium channel blocker (each by 0.5 ml venous injection). BP was recorded for additional 10 min after each injection. Specifically, after lactone effect recording labetalol was administered and 10 min later the amlodipine. We terminated the experiment by venous administration of 1M KCl overdose, until the heart stopped.

[4] = target: T2, KCa3.1 (IK) calcium-activated potassium channel (human KCNN4 gene) expressed in CHO cells (Homo sapiens, UniProt O15554); test: Thallium flux assay, agonist effect on IK channel; type: cell-based; conditions: for Normalized % Activation: IK
T2 construct: expressed in transfected cells
Experimental: as §1, §2, §3, §4

[5] = tested on: Human adipose arterioles (HAAs); test: Dilation of human adipose arterioles (HAAs), cannulated, video diameter measurement; conditions: for max dilation: 10^−7 mol/L, pre-constricted with endothelin-1
Experimental: Human adipose arterioles (HAAs) were extracted from adipose tissues obtained from subjects without coronary artery disease (7 normotensives and 7 hypertensives). The HAAs (100-200 μm in diameter) were cannulated with 2 glass micropipettes in an organ chamber, and the internal diameter of arterioles was measured with a video system. Arterioles were pre-constricted with endothelin-1 (10-50 nmol/L) to reduce the passive diameter by 30-50%. Relaxation was measured in response to the increasing concentrations of 5,6-diHETE lactone (10^−4-10^−1 μmol/L). To examine the involvement of NO in the 5,6-diHETE lactone-induced dilation, relaxation responses were determined in the presence or absence of nitric oxide synthase (NOS) antagonist (100 μmol/L N[omega]-nitro-Larginine methyl ester [L-NAME]).
Endothelial cell denudation was achieved by perfusion of the vessels with pre-warmed air as previously described (H. Miura, Circ. Res. 92 (2003)). At the end of each experiment, papaverine (100 μmol/L), an endothelium-independent vasodilator, was added to determine the maximal dilation for normalization of dilator responses. Vasodilator responses are expressed as the percentage of maximal dilation, with 100% representing complete relaxation (maximal diameter).

## CCC=CCC=CCC=CCC=CCC(O)C1CCCC(=O)O1 (racemic) [5,6-diHETE lactone, 5,6 dihydroxyeicosatetraenoic acid (5,6-diHETE) lactone]
HUVEC
  concentration beyond which cytosolic [Ca2+]i levels show no significant differences (saturation): 0.5 µM
  lowest concentration causing a significant [Ca2+] increase: 0.01 µmol/L
  changes in cellular [Ca2+]i: induced
HUVEC; Homo sapiens, Fluo4 fluorescence, 0.01-5 μmol/L, read-out: EC50 of [Ca2+]i increase (F1max/F0)
  pEC50: 8.00
Rat mesenteric arteries; 5/6Nx vessels, 10^−6M, n=11
  % relaxation (relative to papaverine): 73.3±20.2%
Rat mesenteric arteries; NT vessels, 10^−6M, n=11
  % relaxation (relative to papaverine): 58.6±25.0%
Rat mesenteric arteries; lactone 1 μmol/L, TRAM-34 1 μmol/L and apamin 1 μmol/L, p<0.01
  effect of pre-treatment with TRAM-34 and apamin on induced relaxation: significantly attenuated
[1]
  % dilation (relative to 100 μM papaverine): 29.4±3.1%
[2]; HEK293 cells, 100% = 1 μM A-23187, read-out: EC50, SK3 channel activation
  pEC50: 5.00
[2]; SK3, 0.05 μM
  Normalized % Activation: 0.12%
[2]; SK3, 0.15 μM
  Normalized % Activation: 0.35%
[2]; SK3, 0.3 μM
  Normalized % Activation: 0.95%
[2]; SK3, 0.65 μM
  Normalized % Activation: 3.25%
[2]; SK3, 1.25 μM
  Normalized % Activation: 10.16%
[2]; SK3, 2.5 μM
  Normalized % Activation: 25.36%
[2]; SK3, 5 μM
  Normalized % Activation: 43.17%
[2]; SK3, 10 μM
  Normalized % Activation: 73.65%
[3]; 0.3 mg/kg i.v.
  percent reduction of SBP from baseline: about 20%
[3]; 0.3 mg/kg i.v., baseline 188.0±5.5 mmHg, 3 rats
  systolic blood pressure (SBP) upon injection: 162.5±12.3 mmHg
[4]; CHO cells, 100% = 10 μM NS309, read-out: EC50, IK channel activation
  pEC50: 5.58
[4]; 0.05 μM
  Normalized % Activation: −0.13%
[4]; 0.15 μM
  Normalized % Activation: −0.03%
[4]; 0.3 μM
  Normalized % Activation: 0.2%
[4]; 0.65 μM
  Normalized % Activation: 1.03%
[4]; 1.25 μM
  Normalized % Activation: 6.06%
[4]; 2.5 μM
  Normalized % Activation: 44.2%
[4]; 5 μM
  Normalized % Activation: 90%
[4]; 10 μM
  Normalized % Activation: 98.19%
[5]; hypertensive subjects
  max dilation: 40.9%
[5]; hypertensive subjects, L-NAME 100 μmol/L
  effect of L-NAME on the dilation: no effect
[5]; normotensive (healthy) arterioles
  effect of mechanical denudation of the endothelial layer on induced dilation: significantly reduced
[5]; normotensive subjects
  max dilation: 58.6%
[5]; normotensive subjects, L-NAME 100 μmol/L
  reduction of the dilation effect by L-NAME: 50%

## CC(=O)OCC[N+](C)(C)C [Acetylcholine, acetylcholine, reference compound]
Rat mesenteric arteries; 5/6Nx vessels, acetylcholine concentration response, n=7-13
  % relaxation (relative to papaverine): 63.2±15.6%
Rat mesenteric arteries; NT vessels, acetylcholine concentration response, n=7-13
  % relaxation (relative to papaverine): 94.8±5.5%

## CC/C=C\C/C=C\C/C=C\C/C=C\CC(O)C(O)CCCC(=O)O (racemic) [5,6-diHETE, (±)5,6-dihydroxy-8Z,11Z,14Z,17Z-eicosatetraenoic acid]
HUVEC
  lowest concentration causing a significant [Ca2+] increase: 5 µmol/L
  changes in cellular [Ca2+]i: not

## CC(CCc1ccccc1)NCC(O)c1ccc(O)c(C(N)=O)c1 (centres unmarked) [labetalol, reference compound]
[3]; 10 mg/kg i.v., given after the lactone
  percent reduction of SBP from baseline: about 20%
